Measurements reported in PubChem BioAssay AID1963966 (Molecular Pharmacology Branch, DTP, NCI, 2024).

Tested on: 935938-334-R-J1-PDC spheroids with HUVEC/MSC, viability
Experiment: Anticancer human tumor 935938-334-R-J1-PDC patient-derived small intestine adenocarcinoma cell line growth inhibition [PI3K]
Conditions: for IC50: curve of first compound; for viability, T/C: stronger effect = lower value
How it was run: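 Agents were dosed from a top concentration near clinical Cmax (otherwise 10 microM) in half-log decrements, alone or combined with PI3K inhibitors. The spheroids contain tumor cells plus endothelial (HUVEC) and MSC stroma; viability is measured.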

[1] = second compound 0.0316 µM, first compound 0.0316 µM
[2] = second compound 0.0316 µM, first compound 0.1 µM
[3] = second compound 0.0316 µM, first compound 0.316 µM
[4] = second compound 0.0316 µM, first compound 1 µM
[5] = second compound 0.0316 µM, first compound 3.16 µM
[6] = second compound 0.0316 µM, first compound 10 µM
[7] = second compound 0.1 µM, first compound 0.0316 µM
[8] = second compound 0.1 µM, first compound 0.1 µM
[9] = second compound 0.1 µM, first compound 0.316 µM
[10] = second compound 0.1 µM, first compound 1 µM
[11] = second compound 0.1 µM, first compound 3.16 µM
[12] = second compound 0.1 µM, first compound 10 µM
[13] = second compound 0.316 µM, first compound 0.0316 µM
[14] = second compound 0.316 µM, first compound 0.1 µM
[15] = second compound 0.316 µM, first compound 0.316 µM
[16] = second compound 0.316 µM, first compound 1 µM
[17] = second compound 0.316 µM, first compound 3.16 µM
[18] = second compound 0.316 µM, first compound 10 µM
[19] = second compound 1 µM, first compound 0.0316 µM
[20] = second compound 1 µM, first compound 0.1 µM
[21] = second compound 1 µM, first compound 0.316 µM
[22] = second compound 1 µM, first compound 1 µM
[23] = second compound 1 µM, first compound 3.16 µM
[24] = second compound 1 µM, first compound 10 µM
[25] = second compound 3.16 µM, first compound 0.0316 µM
[26] = second compound 3.16 µM, first compound 0.1 µM
[27] = second compound 3.16 µM, first compound 0.316 µM
[28] = second compound 3.16 µM, first compound 1 µM
[29] = second compound 3.16 µM, first compound 3.16 µM
[30] = second compound 3.16 µM, first compound 10 µM
[31] = second compound 10 µM, first compound 0.0316 µM
[32] = second compound 10 µM, first compound 0.1 µM
[33] = second compound 10 µM, first compound 0.316 µM
[34] = second compound 10 µM, first compound 1 µM
[35] = second compound 10 µM, first compound 3.16 µM
[36] = second compound 10 µM, first compound 10 µM
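Also: compound exposure lasted seven days before viability was read.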
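For viability, T/C in this document: percent of vehicle DMSO treated spheroid viability so 100% = untreated.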

Structure (SMILES): C#Cc1c(F)ccc2cc(O)cc(-c3ncc4c(N5CC6CCC(C5)N6)nc(OCC56CCCN5CC(F)C6)nc4c3F)c12 (centres undefined) + CC(Nc1ncnc2nc[nH]c12)c1cc2cccc(Cl)c2c(=O)n1-c1ccccc1
- IC50 (second compound 0.0316 µM): 4.52 µM
- IC50 (second compound 0.1 µM): 3.15 µM
- IC50 (second compound 0.316 µM): 3.98 µM
- IC50 (second compound 1 µM): 2.84 µM
- IC50 (second compound 3.16 µM): 2.23 µM
- IC50 (second compound 10 µM): 0.663 µM
- viability, T/C [1]: 83.8%
- viability, T/C [2]: 82.3%
- viability, T/C [3]: 83.2%
- viability, T/C [4]: 65.5%
- viability, T/C [5]: 56.8%
- viability, T/C [6]: 39%
- viability, T/C [7]: 99.4%
- viability, T/C [8]: 97%
- viability, T/C [9]: 91.9%
- viability, T/C [10]: 65.5%
- viability, T/C [11]: 53.3%
- viability, T/C [12]: 42.9%
- viability, T/C [13]: 88.8%
- viability, T/C [14]: 103%
- viability, T/C [15]: 89.3%
- viability, T/C [16]: 74.1%
- viability, T/C [17]: 54.3%
- viability, T/C [18]: 37.8%
- viability, T/C [19]: 76.7%
- viability, T/C [20]: 73.2%
- viability, T/C [21]: 60.4%
- viability, T/C [22]: 52.4%
- viability, T/C [23]: 57.4%
- viability, T/C [24]: 39.1%
- viability, T/C [25]: 82.8%
- viability, T/C [26]: 82.8%
- viability, T/C [27]: 110%
- viability, T/C [28]: 69.8%
- viability, T/C [29]: 44.5%
- viability, T/C [30]: 30.3%
- viability, T/C [31]: 70%
- viability, T/C [32]: 73.8%
- viability, T/C [33]: 60.4%
- viability, T/C [34]: 44.2%
- viability, T/C [35]: 36.2%
- viability, T/C [36]: 34%

Structure (SMILES): C=CC(=O)N1CCN(c2nc(=O)n(-c3c(C)ccnc3C(C)C)c3nc(-c4c(O)cccc4F)c(F)cc23)C(C)C1 (centres undefined) + CC(Nc1ncnc2nc[nH]c12)c1cc2cccc(Cl)c2c(=O)n1-c1ccccc1
- IC50 (second compound 0.0316 µM): > 10 µM
- IC50 (second compound 0.1 µM): > 10 µM
- IC50 (second compound 0.316 µM): > 10 µM
- IC50 (second compound 1 µM): > 10 µM
- IC50 (second compound 3.16 µM): > 10 µM
- IC50 (second compound 10 µM): > 10 µM
- viability, T/C [1]: 94.2%
- viability, T/C [2]: 103%
- viability, T/C [3]: 96.4%
- viability, T/C [4]: 84.3%
- viability, T/C [5]: 83.9%
- viability, T/C [6]: 95.8%
- viability, T/C [7]: 105%
- viability, T/C [8]: 123%
- viability, T/C [9]: 96.8%
- viability, T/C [10]: 120%
- viability, T/C [11]: 114%
- viability, T/C [12]: 108%
- viability, T/C [13]: 86%
- viability, T/C [14]: 88.7%
- viability, T/C [15]: 88.3%
- viability, T/C [16]: 95.7%
- viability, T/C [17]: 98.2%
- viability, T/C [18]: 87.6%
- viability, T/C [19]: 96.7%
- viability, T/C [20]: 106%
- viability, T/C [21]: 64%
- viability, T/C [22]: 94.8%
- viability, T/C [23]: 73.4%
- viability, T/C [24]: 68.9%
- viability, T/C [25]: 71.3%
- viability, T/C [26]: 84.3%
- viability, T/C [27]: 89.5%
- viability, T/C [28]: 85.1%
- viability, T/C [29]: 95%
- viability, T/C [30]: 72.2%
- viability, T/C [31]: 62.1%
- viability, T/C [32]: 99.5%
- viability, T/C [33]: 96.8%
- viability, T/C [34]: 84.5%
- viability, T/C [35]: 75.5%
- viability, T/C [36]: 68.8%
